Measured values published in the supplement of paper PMC10307832.

Columns and labels:
Experiment in all cases: relative viability (nuclei count vs DMSO), 5 days (fraction); higher = more cells survive
BI-D1870 = compound: CC(C)CCN1c2nc(Nc3cc(F)c(O)c(F)c3)ncc2N(C)C(=O)C1C [BI-D1870]
Procedure, shortened: (§1)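 Lung cancer cell lines in 1536-well plates were kept overnight at 37 °C, then pinned with five library-drug doses (not always all listed) spaced by √10 on vehicle-anchored plates. After 5 days without medium change, cells were fixed, permeabilised and Hoechst-stained in one step, imaged at 4×, and nuclei were counted with MetaXpress. Viability is treated-well nuclei divided by vehicle-well nuclei, taken as the median over plates. Plates passed only with control CV below 25% and at least one doubling.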

Zebularine = compound: O=c1ncccn1[C@@H]1O[C@H](CO)[C@@H](O)[C@H]1O [Zebularine]
Procedure, shortened: as §1

BI-D1870 + Navitoclax = compound: CC(C)CCN1c2nc(Nc3cc(F)c(O)c(F)c3)ncc2N(C)C(=O)C1C [BI-D1870] + CC1(C)CCC(c2ccc(Cl)cc2)=C(CN2CCN(c3ccc(C(=O)NS(=O)(=O)c4ccc(N[C@H](CCN5CCOCC5)CSc5ccccc5)c(S(=O)(=O)C(F)(F)F)c4)cc3)CC2)C1 [Navitoclax] (partner 0.5 µM)
Procedure, shortened: (§2)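 Dosing by pin tool came one day after lung cancer cell lines were seeded in 1536-well plates, using either one drug or a fixed anchor-drug dose plus five library-drug doses (not always all listed) in √10 steps. After 5 days, nuclei were counted on 4× images. Relative viability is treated-well nuclei count divided by vehicle-well nuclei count, and values are medians of duplicate plates.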

BI-D1870 + Foretinib = compound: CC(C)CCN1c2nc(Nc3cc(F)c(O)c(F)c3)ncc2N(C)C(=O)C1C [BI-D1870] + COc1cc2c(Oc3ccc(NC(=O)C4(C(=O)Nc5ccc(F)cc5)CC4)cc3F)ccnc2cc1OCCCN1CCOCC1 [Foretinib] (partner 0.25 µM)
Procedure, shortened: as §2

Row | Cell Line | relative viability (BI-D1870; 0.04 µM) | relative viability (BI-D1870; 0.1265 µM) | relative viability (BI-D1870; 0.4 µM) | relative viability (BI-D1870; 1.265 µM) | relative viability (BI-D1870; 4 µM) | relative viability (Zebularine; 1 µM) | relative viability (Zebularine; 3.162 µM) | relative viability (Zebularine; 10 µM) | relative viability (Zebularine; 31.62 µM) | relative viability (Zebularine; 100 µM) | relative viability (BI-D1870 + Navitoclax; first compound 0.04 µM) | relative viability (BI-D1870 + Navitoclax; first compound 0.1265 µM) | relative viability (BI-D1870 + Navitoclax; first compound 0.4 µM) | relative viability (BI-D1870 + Navitoclax; first compound 1.265 µM) | relative viability (BI-D1870 + Navitoclax; first compound 4 µM) | relative viability (BI-D1870 + Foretinib; first compound 0.04 µM) | relative viability (BI-D1870 + Foretinib; first compound 0.1265 µM) | relative viability (BI-D1870 + Foretinib; first compound 0.4 µM) | relative viability (BI-D1870 + Foretinib; first compound 1.265 µM) | relative viability (BI-D1870 + Foretinib; first compound 4 µM)
1 | PC-3 [JPC-3] | 1.05 | 1.02 | 0.962 | 1.1 | 0.951 | 1.07 | 1.01 | 0.711 | 0.868 | 0.76 | 0.812 | 0.739 | 0.743 | 0.809 | 0.734 | 0.999 | 1.01 | 1.02 | 1.06 | 0.961
2 | BEN | 1.03 | 0.915 | 1.05 | 1.07 | 0.845 | 0.913 | 0.788 | 0.45 | 0.378 | 0.333 | 0.0563 | 0.0674 | 0.0746 | 0.383 | 0.0789 | 0.654 | 0.609 | 0.76 | 1.16 | 0.77
3 | NCI-H1666 | 1.12 | 1.01 | 0.955 | 1.16 | 0.99 | 1.03 | 0.904 | 0.834 | 1.02 | 0.868 | 0.89 | 0.822 | 0.81 | 0.933 | 0.851 | 1.1 | 0.936 | 0.952 | 1.07 | 0.963
4 | LC-2-ad | 1.08 | 0.957 | 1.02 | 1.01 | 0.868 | 1.02 | 0.937 | 0.653 | 0.719 | 0.355 | 0.549 | 0.44 | 0.444 | 0.41 | 0.244 | 1.01 | 0.932 | 0.946 | 0.975 | 0.626
5 | SK-LU-1 | 1.07 | 0.91 | 0.972 | 0.997 | 0.669 | 1.07 | 0.989 | 0.626 | 0.739 | 0.544 | 1 | 1.09 | 0.852 | 0.54 | 0.0905 | 0.86 | 0.676 | 0.739 | 0.798 | 0.525
6 | ChaGo-K-1 | 1.05 | 0.991 | 0.9 | 0.962 | 0.868 | 1.03 | 0.97 | 0.525 | 0.317 | 0.244 | 0.94 | 0.976 | 0.808 | 1.03 | 0.654 | 1.01 | 0.85 | 0.857 | 1.04 | 0.956
7 | COR-L 105 | 0.895 | 0.836 | 0.949 | 0.939 | 0.888 | 1.03 | 0.952 | 0.831 | 1.15 | 0.873 | 0.863 | 0.673 | 0.761 | 0.997 | 0.75 | 1.29 | 1.12 | 1.1 | 1.47 | 1.12
8 | NCI-H1975 | 1.15 | 0.904 | 0.99 | 0.914 | 0.851 | 1 | 0.859 | 0.519 | 0.468 | 0.258 | 1.12 | 1.22 | 1.14 | 1.06 | 0.54 | 0.996 | 0.849 | 0.884 | 0.912 | 0.847
9 | Calu-6 | 1.11 | 0.865 | 0.998 | 0.904 | 0.676 | 1.18 | 0.99 | 0.747 | 0.7 | 0.246 | 0.989 | 0.829 | 0.823 | 0.671 | 0.352 | 0.929 | 0.789 | 0.87 | 0.774 | 0.561
10 | NCI-H1993 | 1.03 | 0.876 | 0.827 | 1.15 | 0.702 | 1.18 | 0.945 | 0.736 | 0.963 | 0.774 | 0.91 | 0.888 | 0.988 | 1.07 | 0.73 | 0.777 | 0.659 | 0.715 | 0.784 | 0.842
11 | RERF-LC-KJ | 1.01 | 0.908 | 0.954 | 1.02 | 0.814 | 1.11 | 1.03 | 0.859 | 1.01 | 0.994 | 0.917 | 0.632 | 0.979 | 1.02 | 0.888 | 0.885 | 0.842 | 0.878 | 0.846 | 0.909
12 | NCI-H23 | 1.21 | 0.874 | 0.868 | 0.939 | 0.575 | 1.1 | 0.91 | 0.632 | 0.983 | 0.881 | 1.15 | 0.741 | 0.792 | 0.891 | 0.888 | 1 | 1.03 | 0.986 | 0.83 | 0.781
13 | HCC-366 | 1.02 | 0.928 | 0.995 | 1.04 | 0.951 | 1.03 | 0.995 | 0.928 | 0.856 | 0.297 | 1.15 | 0.964 | 1.08 | 1.01 | 1.05 | 0.957 | 0.906 | 0.932 | 0.896 | 0.943
14 | EMC-BAC-2 | 1.1 | 1.01 | 0.891 | 1.01 | 0.904 | 1.07 | 0.994 | 0.775 | 0.981 | 1.06 | 1.24 | 1.06 | 1.09 | 1.21 | 1.18 | 1.07 | 0.875 | 0.918 | 1.09 | 1.02
15 | NCI-H2405 | 1.07 | 0.985 | 1.03 | 1.07 | 0.909 | 1.02 | 0.992 | 0.871 | 0.968 | 0.726 | 1.17 | 0.774 | 0.977 | 0.844 | 0.671 | 1.09 | 0.994 | 1.01 | 1.05 | 0.859
